Earlier results, collected in PubChem BioAssay AID1259409 (Chemical Carcinogenesis Research Information System (CCRIS), 2018).

Tested on: rodent chemically induced tumor inhibition, incidence and multiplicity
Test: CCRIS tumor inhibitor studies
Details: Dose [Inhibitor]: 0, Route [Inhibitor]: ORAL, Species: RAT, Promoter: NONE USED

CCOC1=C(O)C(=O)O[C@@H]1[C@@H](O)CO
tumour outcome (control, treated, inhibition, significance) (Carcinogen: 2-AMINO-1-METHYL-6-PHENYLIMIDAZO[4,5-B]PYRIDINE, 105650-23-5, 1% IN DIET FOR 52 WK CONCURRENTLY WITH CARCINOGEN TREATMENT (STUDY DURATION: 52 WK), Strain/Sex: F344/FEMALE, Target Tissue: Type of Lesion: LARGE INTESTINE: ADENOMA OR CARCINOMA, Dose [Carcinogen]: 0.02% IN DIET FOR 52 WK): 2/18 (11%), 3/18 (17%), -55%, not significant
tumour outcome (control, treated, inhibition, significance) (Carcinogen: 2-AMINO-1-METHYL-6-PHENYLIMIDAZO[4,5-B]PYRIDINE, 105650-23-5, 1% IN DIET FOR 52 WK CONCURRENTLY WITH CARCINOGEN TREATMENT (STUDY DURATION: 52 WK), Strain/Sex: F344/FEMALE, Target Tissue: Type of Lesion: MAMMARY GLAND: ADENOCARCINOMA, Dose [Carcinogen]: 0.02% IN DIET FOR 52 WK): 8/20 (40%), 6/21 (29%), 28%, not significant
tumour outcome (control, treated, inhibition, significance) (Carcinogen: DIETHYLNITROSAMINE, 55-18-5, N-METHYL-N-NITROSAUREA, 684-93-5, N-BUTYL-N-(4-HYDROXYBUTYL)NITROSAMINE, 3817-11-6, DIMETHY, Carcinogen: DIETHYLNITROSAMINE, 55-18-5, N-METHYL-N-NITROSAUREA, 684-93-5, N-BUTYL-N-(4-HYDROXYBUTYL)NITROSAMINE, 3817-11-6, DIMETHY, 1% IN THE DIET FOR 24 WK BEGINNING 1 DAY POST CARCINOGEN TREATMENT (STUDY DURATION: 28 WK), Strain/Sex: F344/MALE, Target Tissue: Type of Lesion: SMALL INTESTINE: ADENOMA, Dose [Carcinogen]: 100 MG/KG BW DEN ONCE FOLLOWED BY 20 MG/KG BW MNU 4 TIMES AND 0.05% BBN IN DRINKING WATER DURING FIRST 2 WK THEN 40 MG/K): 33%, 13%, 60%, not significant
tumour outcome (control, treated, inhibition, significance) (Carcinogen: DIETHYLNITROSAMINE, 55-18-5, N-METHYL-N-NITROSOUREA, 684-93-4, N-BUTYL-N-(4-HYDROXYBUTYL)NITROSAMINE, 3817-11-6, DIMETHY, Carcinogen: DIETHYLNITROSAMINE, 55-18-5, N-METHYL-N-NITROSOUREA, 684-93-4, N-BUTYL-N-(4-HYDROXYBUTYL)NITROSAMINE, 3817-11-6, DIMETHY, 1% IN THE DIET FOR 24 WK BEGINNING 1 DAY POST CARCINOGEN TREATMENT (STUDY DURATION: 28 WK), Strain/Sex: F344/MALE, Target Tissue: Type of Lesion: URINARY BLADDER: CARCINOMA, Dose [Carcinogen]: 100 MG/KG BW DEN ONCE FOLLOWED BY 20 MG/KG BW MNU 4 TIMES AND 0.05% BBN IN DRINKING WATER DURING FIRST 2 WK THEN 40 MG/K): 7%, 0%, 100%, not significant
tumour outcome (control, treated, inhibition, significance) (Carcinogen: DIETHYLNITROSAMINE, 55-18-5, N-METHYL-N-NITROSOUREA, 684-93-5, N-BUTYL-N-(4-HYDROXYBUTYL)NITROSAMINE, 3817-11-6, DIMETHY, Carcinogen: DIETHYLNITROSAMINE, 55-18-5, N-METHYL-N-NITROSOUREA, 684-93-5, N-BUTYL-N-(4-HYDROXYBUTYL)NITROSAMINE, 3817-11-6, DIMETHY, 1% IN DIET FOR 24 WK BEGINNING 1 DAY POST CARCINOGEN TREATMENT (STUDY DURATION: 28 WK), Strain/Sex: F344/MALE, Target Tissue: Type of Lesion: THYROID: CARCINOMA, Dose [Carcinogen]: 100 MG/KG BW DEN ONCE FOLLOWED BY 20 MG/KG BW MNU 4 TIMES AND 0.05% BBN IN DRINKING WATER DURING FIRST 2 WK THEN 40 MG/K): 7%, 0%, 100%, not significant
tumour outcome (control, treated, inhibition, significance) (Carcinogen: DIETHYLNITROSAMINE, 55-18-5, N-METHYL-N-NITROSOUREA, 684-93-5, N-BUTYL-N-(4-HYDROXYBUTYL)NITROSAMINE, 3817-11-6, DIMETHY, Carcinogen: DIETHYLNITROSAMINE, 55-18-5, N-METHYL-N-NITROSOUREA, 684-93-5, N-BUTYL-N-(4-HYDROXYBUTYL)NITROSAMINE, 3817-11-6, DIMETHY, 1% IN DIET FOR 30 DAYS BEGINNING 1 DAY PRIOR TO CARCINOGEN TREATMENT (STUDY DURATION: 28 WK), Strain/Sex: F344/MALE, Target Tissue: Type of Lesion: URINARY BLADDER: PAPILLOMA, Dose [Carcinogen]: 100 MG/KG BW DEN ONCE FOLLOWED BY 20 MG/KG BW MNU 4 TIMES AND 0.05% BBN IN DRINKING WATER DURING FIRST 2 WK THEN 40 MG/K): 7%, 7%, 0%, not significant
tumour outcome (control, treated, inhibition, significance) (Carcinogen: DIETHYLNITROSAMINE, 55-18-5, N-METHYL-N-NITROSOUREA, 684-93-5, N-BUTYL-N-(4-HYDROXYBUTYL)NITROSAMINE, 3817-11-6, DIMETHY, Carcinogen: DIETHYLNITROSAMINE, 55-18-5, N-METHYL-N-NITROSOUREA, 684-93-5, N-BUTYL-N-(4-HYDROXYBUTYL)NITROSAMINE, 3817-11-6, DIMETHY, 1% IN THE DIET FOR 24 WK BEGINNING 1 DAY POST CARCINOGEN TREATMENT ( STUDY DURATION: 28 WK), Strain/Sex: F344/MALE, Target Tissue: Type of Lesion: LARGE INTESTINE: CARCINOMA, Dose [Carcinogen]: 100 MG/KG BW DEN ONCE FOLLOWED BY 20 MG/KG BW MNU 4 TIMES AND 0.05% BBN IN DRINKING WATER DURING FIRST 2 WK THEN 40 MG/K): 7%, 13%, -86%, not significant
tumour outcome (control, treated, inhibition, significance) (Carcinogen: DIETHYLNITROSAMINE, 55-18-5, N-METHYL-N-NITROSOUREA, 684-93-5, N-BUTYL-N-(4-HYDROXYBUTYL)NITROSAMINE, 3817-11-6, DIMETHY, Carcinogen: DIETHYLNITROSAMINE, 55-18-5, N-METHYL-N-NITROSOUREA, 684-93-5, N-BUTYL-N-(4-HYDROXYBUTYL)NITROSAMINE, 3817-11-6, DIMETHY, 1% IN THE DIET FOR 24 WK BEGINNING 1 DAY POST CARCINOGEN TREATMENT (STUDY DURATION: 28 WK), Strain/Sex: F344/MALE, Target Tissue: Type of Lesion: LARGE INTESTINE: ADENOMA, Dose [Carcinogen]: 100 MG/KG BW DEN ONCE FOLLOWED BY 20 MG/KG BW MNU 4 TIMES AND 0.05% BBN IN DRINKING WATER DURING FIRST 2 WK THEN 40 MG/K): 27%, 47%, -74%, not significant
